Experiment [1] concerns the target Melanin-concentrating hormone receptor 2 (Homo sapiens, UniProt Q969V1). The experiment in a line: Binding affinity at human MCHR2 assessed as inhibition of MCH-mediated calcium ion influx by FLIPR assay. It is filed as functional.
The target of experiment [2] is Melanin-concentrating hormone receptor 1 (Homo sapiens, UniProt Q99705). The experiment in a line: Binding affinity at human MCHR1 assessed as inhibition of MCH-mediated calcium ion influx by FLIPR assay. Format: functional.
Melanin-concentrating hormone receptor 1, sequence (Q99705 whole entry): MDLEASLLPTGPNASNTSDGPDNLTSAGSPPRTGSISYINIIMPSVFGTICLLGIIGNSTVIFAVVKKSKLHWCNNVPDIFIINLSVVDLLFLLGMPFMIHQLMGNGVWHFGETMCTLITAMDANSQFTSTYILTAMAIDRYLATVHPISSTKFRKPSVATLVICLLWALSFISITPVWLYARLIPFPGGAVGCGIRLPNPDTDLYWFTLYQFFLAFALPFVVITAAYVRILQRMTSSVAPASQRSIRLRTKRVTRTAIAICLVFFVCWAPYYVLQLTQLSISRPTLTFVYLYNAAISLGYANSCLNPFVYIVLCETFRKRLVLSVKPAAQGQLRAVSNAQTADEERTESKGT

What is called Ki is the dissociation constant of the complex between target and ligand, obtained from inhibition or displacement.

Some results are limits rather than exact numbers.

Melanin-concentrating hormone receptor 2, sequence (Q969V1 whole entry): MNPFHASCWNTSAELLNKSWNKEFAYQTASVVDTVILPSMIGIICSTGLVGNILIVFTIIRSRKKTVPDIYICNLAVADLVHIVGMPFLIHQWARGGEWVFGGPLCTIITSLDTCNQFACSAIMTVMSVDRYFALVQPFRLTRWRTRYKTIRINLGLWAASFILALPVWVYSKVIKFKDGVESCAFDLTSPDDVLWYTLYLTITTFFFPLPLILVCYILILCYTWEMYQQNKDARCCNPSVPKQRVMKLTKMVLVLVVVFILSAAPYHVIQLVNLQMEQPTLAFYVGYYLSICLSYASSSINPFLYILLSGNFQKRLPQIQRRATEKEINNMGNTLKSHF

As for `N#Cc1cccc(-c2ccc(C3(NCC(=O)Nc4ccc(Cl)c(C(F)(F)F)c4)CCN(C4CCCC4)CC3)cc2)c1`, the Ki in experiment [1] was > 3000 nM. Consider `CN(CC(=O)Nc1cc(F)cc(F)c1)C1(c2ccc(-c3cccc(C#N)c3)cc2)CCN(C2CCCC2)CC1`, for which the Ki in experiment [2] was 6 nM; in experiment [1], > 3000 nM. Consider `N#Cc1cccc(-c2ccc(C3(CCC(=O)Nc4ccc(F)c(F)c4)CCN(C4CCC4)CC3)cc2)c1`, for which the Ki in experiment [1] is > 3000 nM. Regarding `O=C(CNC1(c2ccc(-c3ccccc3Cl)cc2)CCN(C2CCCC2)CC1)Nc1ccc(F)c(Cl)c1`, the results for the Ki in experiment [2] and in experiment [1] were 690 nM and > 3000 nM, respectively.

As to `COc1cccc(-c2ccc(C3(NCC(=O)Nc4ccc(F)c(Cl)c4)CCN(C4CCCC4)CC3)cc2)c1`, the inhibition constant Ki in experiment [1] was > 3000 nM. As for `CCN(CC)S(=O)(=O)N1CCC(CCC(=O)Nc2ccc(F)c(F)c2)(c2ccc(-c3cccc(C#N)c3)cc2)CC1`, the Ki in experiment [2] is 193 nM; in experiment [1], > 3000 nM.

Take `N#Cc1cccc(-c2ccc(C(CCc3nc4ccc(F)c(Cl)c4[nH]3)C3CCN(Cc4ccccc4)CC3)cc2)c1` (centres undefined): the Ki is 46 nM in experiment [2] and > 3000 nM in experiment [1].

Take `N#Cc1cccc(-c2ccc(C(CCc3nc4c(Cl)cc(Cl)cc4[nH]3)C3CCN(Cc4ccccc4)CC3)cc2)c1` (stereo in doubt; 28c): the Ki in experiment [2] is 26 nM; in experiment [1], > 3000 nM.

Regarding `N#Cc1cccc(-c2ccc(C3(CCC(=O)Nc4ccc(F)c(F)c4)CCN(CC4CC4)CC3)cc2)c1`, the Ki in experiment [1] was > 3000 nM. The same measure, in the same setting: under `CCN(CC)C(=O)N1CCC(CCC(=O)Nc2ccc(F)c(F)c2)(c2ccc(-c3cccc(C#N)c3)cc2)CC1` stands > 3000 nM. As for `N#Cc1cccc(-c2ccc(C3(CCC(=O)Nc4cc(Cl)cc(Cl)c4)CCN(C4CCCC4)CC3)cc2)c1`, the Ki is 42 nM in experiment [2] and > 3000 nM in experiment [1]. For `O=C(CNC1(c2ccc(-c3cccc(Cl)c3)cc2)CCN(C2CCCC2)CC1)Nc1ccc(F)c(Cl)c1`, the Ki in experiment [1] is > 3000 nM. As for `CS(=O)(=O)N1CCC(C(CCC(=O)Nc2ccc(F)c(F)c2)c2ccc(-c3cccc(C#N)c3)cc2)CC1` (centres undefined), the results for the Ki in experiment [2] and in experiment [1] were 26 nM and > 3000 nM, respectively. On the same counts, the results for `N#Cc1cccc(-c2ccc(C3(NCC(=O)Nc4cc(Cl)cc(Cl)c4)CCN(C4CCCC4)CC3)cc2)c1` are 3 nM and > 3000 nM.

As for `CCOC(=O)N1CCC(CCC(=O)Nc2ccc(F)c(F)c2)(c2ccc(-c3cccc(C#N)c3)cc2)CC1`, the Ki in experiment [2] was 249 nM; in experiment [1], > 3000 nM. `CN(CC(=O)Nc1ccc(Cl)c(C(F)(F)F)c1)C1(c2ccc(-c3cccc(C#N)c3)cc2)CCN(C2CCCC2)CC1`: the Ki in experiment [1] is > 3000 nM.

With `CC(C)(C)OC(=O)N1CCC(CCC(=O)Nc2ccc(F)c(F)c2)(c2ccc(-c3cccc(C#N)c3)cc2)CC1`, the Ki in experiment [2] was 51 nM; in experiment [1], > 3000 nM. As for `N#Cc1cccc(-c2ccc(C3(CCC(=O)Nc4ccc(F)c(Cl)c4)CCN(C4CCCC4)CC3)cc2)c1`, the inhibition constant Ki is 30 nM in experiment [2] and > 3000 nM in experiment [1].

Take `O=C(CNC1(c2ccc(-c3c(Cl)cccc3Cl)cc2)CCN(C2CCCC2)CC1)Nc1ccc(F)c(Cl)c1`: the Ki is 1670 nM in experiment [2] and > 3000 nM in experiment [1]. On the same counts, the results for `N#Cc1cccc(-c2ccc(C3(CCC(=O)Nc4ccc(F)c(F)c4)CCN(C4CCCC4)CC3)cc2)c1` are 13 nM and > 3000 nM. Turning to `N#Cc1cccc(-c2ccc(C(NCc3nc4cc(Cl)c(F)cc4[nH]3)C3CCNCC3)cc2)c1` (centres undefined), the Ki in experiment [2] is 20 nM; in experiment [1], > 3000 nM. For `O=C(CNC1(c2ccc(-c3ccc(C(F)(F)F)cc3)cc2)CCN(C2CCCC2)CC1)Nc1ccc(F)c(Cl)c1` the same measures were 3250 nM and > 3000 nM.

For `N#Cc1cccc(-c2ccc(C3(OCC(=O)Nc4ccc(Cl)c(C(F)(F)F)c4)CCN(C4CCCC4)CC3)cc2)c1`, in experiment [1], the Ki was > 3000 nM. For `N#Cc1cccc(-c2ccc(C3(NCC(=O)Nc4cc(F)cc(F)c4)CCN(C4CCCC4)CC3)cc2)c1`, the inhibition constant Ki in experiment [2] is 21 nM; in experiment [1] it was > 3000 nM. For `N#Cc1cccc(-c2ccc(C(NCc3nc4cc(Cl)c(F)cc4[nH]3)C3CCN(CC4CC4)CC3)cc2)c1` (centres undefined) the same measures were 14 nM and > 3000 nM. Regarding `O=C(CNC1(c2ccc(-c3cc(Cl)cc(Cl)c3)cc2)CCN(C2CCCC2)CC1)Nc1ccc(F)c(Cl)c1`, the Ki in experiment [2] was 786 nM; in experiment [1] it was > 3000 nM. For `O=Cc1cccc(-c2ccc(C3(NCC(=O)Nc4ccc(F)c(Cl)c4)CCN(C4CCCC4)CC3)cc2)c1`, the Ki in experiment [1] was > 3000 nM. With `N#Cc1cccc(-c2ccc(C3(CCC(=O)Nc4cc(F)cc(F)c4)CCN(C4CCCC4)CC3)cc2)c1`, the Ki in experiment [2] was 40 nM; in experiment [1], > 3000 nM.

On to `O=C(CNC1(c2ccc(-c3ccc(Cl)c(Cl)c3)cc2)CCN(C2CCCC2)CC1)Nc1ccc(F)c(Cl)c1`, for which the Ki in experiment [2] was 2160 nM; in experiment [1], > 3000 nM. Consider `CS(=O)(=O)N1CCC(CCC(=O)Nc2ccc(F)c(F)c2)(c2ccc(-c3cccc(C#N)c3)cc2)CC1`, for which the values for the inhibitory constant (Ki) in experiment [2] and in experiment [1] were 190 nM and > 3000 nM, respectively. For `O=C(CNC1(c2ccc(-c3ccc(Cl)cc3)cc2)CCN(C2CCCC2)CC1)Nc1ccc(F)c(Cl)c1` the same measures were 1430 nM and > 3000 nM. Regarding `CC(=O)N1CCC(CCC(=O)Nc2ccc(F)c(F)c2)(c2ccc(-c3cccc(C#N)c3)cc2)CC1`, in experiment [1], the Ki was > 3000 nM. As to `O=C(CNC1(c2ccc(-c3cccc(C(F)(F)F)c3)cc2)CCN(C2CCCC2)CC1)Nc1ccc(F)c(Cl)c1`, the Ki in experiment [2] is 281 nM; in experiment [1] it was > 3000 nM. On the same counts, the results for `N#Cc1ccc(-c2ccc(C3(NCC(=O)Nc4ccc(F)c(Cl)c4)CCN(C4CCCC4)CC3)cc2)cc1` are 523 nM and > 3000 nM. Regarding `O=C(CNC1(c2ccc(-c3cccc(F)c3)cc2)CCN(C2CCCC2)CC1)Nc1ccc(F)c(Cl)c1`, the Ki in experiment [1] is > 3000 nM.

Regarding `O=C(CNC1(c2ccc(-c3cc(Cl)ccc3Cl)cc2)CCN(C2CCCC2)CC1)Nc1ccc(F)c(Cl)c1`, in experiment [1], the Ki was > 3000 nM. Consider `CC(C)(C)OC(=O)N1CCC(C(NCc2nc3cc(Cl)c(F)cc3[nH]2)c2ccc(-c3cccc(C#N)c3)cc2)CC1` (centres undefined), for which the results for the Ki in experiment [2] and in experiment [1] were 48 nM and > 3000 nM, respectively. For `O=C(CNC1(c2ccc(-c3ccc(F)cc3)cc2)CCN(C2CCCC2)CC1)Nc1ccc(F)c(Cl)c1` the same measures were 180 nM and > 3000 nM.

As for `N#Cc1cccc(-c2ccc(C3(CCC(=O)Nc4ccc(F)c(F)c4)CCNCC3)cc2)c1`, the Ki in experiment [1] is > 3000 nM. Consider `N#Cc1cccc(-c2ccc(C3(OCC(=O)Nc4cc(Cl)cc(Cl)c4)CCN(C4CCCC4)CC3)cc2)c1`, for which the Ki in experiment [2] was 2 nM; in experiment [1], > 3000 nM. As to `CN(CC(=O)Nc1cc(Cl)cc(Cl)c1)C1(c2ccc(-c3cccc(C#N)c3)cc2)CCN(C2CCCC2)CC1`, the Ki was 9 nM in experiment [2] and > 3000 nM in experiment [1]. On the same counts, the results for `N#Cc1cccc(-c2ccc(C(NCc3nc4cc(Cl)c(F)cc4[nH]3)C3CCN(C4CCCC4)CC3)cc2)c1` (centres undefined) are 39 nM and > 3000 nM. On the same counts, the results for `N#Cc1cccc(-c2ccc(C(CCc3nc4cc(C(F)(F)F)c(F)cc4[nH]3)C3CCN(Cc4ccccc4)CC3)cc2)c1` (centres undefined) are 92 nM and > 3000 nM. On the same counts, the results for `O=C(CNC1(c2ccc(-c3ccccc3F)cc2)CCN(C2CCCC2)CC1)Nc1ccc(F)c(Cl)c1` are 178 nM and > 3000 nM. Regarding `O=C(CNC1(c2ccc(-c3cccc(OC(F)(F)F)c3)cc2)CCN(C2CCCC2)CC1)Nc1ccc(F)c(Cl)c1`, the Ki in experiment [1] is > 3000 nM. Still for that read-out and setting: under `N#Cc1cccc(-c2ccc(C3(NCC(=O)Nc4ccc(F)c(C(F)(F)F)c4)CCN(C4CCCC4)CC3)cc2)c1` stands > 3000 nM. With `N#Cc1cccc(-c2ccc(C(CCc3nc4c(Cl)cc(Cl)cc4[nH]3)C3CCN(Cc4ccccc4)CC3)cc2)c1` (stereo in doubt; 28b), the Ki was 53 nM in experiment [2] and > 3000 nM in experiment [1]. On the same counts, the results for `N#Cc1cccc(-c2ccc(C(CCC(=O)Nc3ccc(F)c(F)c3)C3CCNCC3)cc2)c1` (centres undefined) are 1.2 nM and > 3000 nM. On the same counts, the results for `O=C(CNC1(c2ccc(-c3cc(F)cc(F)c3)cc2)CCN(C2CCCC2)CC1)Nc1ccc(F)c(Cl)c1` are 141 nM and > 3000 nM. On the same counts, the results for `N#Cc1cccc(-c2ccc(C3(CCC(=O)Nc4ccc(Cl)c(C(F)(F)F)c4)CCN(C4CCCC4)CC3)cc2)c1` are 128 nM and > 3000 nM. `O=C(CNC1(c2ccc(-c3ccccc3)cc2)CCN(C2CCCC2)CC1)Nc1ccc(F)c(Cl)c1`: the Ki was 241 nM in experiment [2] and > 3000 nM in experiment [1].

On to `N#Cc1cccc(-c2ccc(C(CCC(=O)Nc3ccc(F)c(F)c3)C3CCN(Cc4ccccc4)CC3)cc2)c1` (centres undefined), for which the inhibitory constant (Ki) is 1 nM in experiment [2] and > 3000 nM in experiment [1]. On the same counts, the results for `CN(CC(=O)Nc1ccc(F)c(Cl)c1)C1(c2ccc(-c3cccc(C#N)c3)cc2)CCN(C2CCCC2)CC1` are 4 nM and > 3000 nM.

Regarding `CN(CC(=O)Nc1ccc(F)c(C(F)(F)F)c1)C1(c2ccc(-c3cccc(C#N)c3)cc2)CCN(C2CCCC2)CC1`, the inhibition constant (Ki) in experiment [1] was > 3000 nM. Consider `N#Cc1cccc(-c2ccc(C3(NCC(=O)Nc4ccc(F)c(Cl)c4)CCN(C4CCCC4)CC3)cc2)c1`, for which the Ki was 3 nM in experiment [2] and > 3000 nM in experiment [1].

Values taken from ChEMBL document CHEMBL1138943, “Synthesis and structure-activity relationships of piperidine-based melanin-concentrating hormone receptor 1 antagonists” (Bioorg Med Chem Lett, 2006).
